Read-outs that look alike come from different tables or passages of the source.
What was measured:
[1] = test system: adult Ctenocephalides felis fleas; assay: Contact activity against adult Ctenocephalides felis (treated surface, motility by machine vision, 24 h); conditions: read-out: EC80 (% motility reduction, adult C. felis, contact)
From the text: Example 7: Screening Method to Test Contact Activity of Compounds of Formula (I) Against Adult Ctenocephalides felis

[2] = test system: Plutella xylostella; assay: Insecticidal test on Plutella xylostella (Chinese cabbage seedling dip); conditions: 144 h, read-out: activity level (corrected mortality rate), Plutella xylostella
Protocol: Example 12: Insecticidal Test on Plutella xylostella
(§1) The compounds of formula (I) of the present invention or salts thereof were separately dispersed in water and diluted to 500 ppm. Ten adults of Plutella xylostella were released onto Chinese cabbage seedlings and allowed to lay eggs thereon. 2 days after the release of the adults, the seedling was dipped in the dispersion for about 30 seconds. After air dried, the seedling was kept in a room at 25° C. 6 days after the dip treatment, the numbers of the dead and alive insects were counted. The corrected mortality rate was calculated according to the following formula and the insecticidal activity was evaluated according to the following criteria. Corrected mortality rate (%)=100×(Survival rate in an untreated plot−Survival rate in a treated plot)/Survival rate in an untreated plot • A: the corrected mortality rate is 100% • B: the corrected mortality rate is 90 to 99% • C: the corrected mortality rate is 80 to 89% • D: the corrected mortality rate is 50 to 79%

[3] = test system: Aedes aegypti L1 larvae; assay: Activity against larvae of Aedes aegypti (L1 larvae, 384-well, image-based mortality); conditions: 48 h at 27° C., 384-well, read-out: EC50 (percentage of mortality, A. aegypti L1 larvae)
Protocol: Example 3: Screening Method to Test Activity of Compounds of Formula (I) Against Larvae of Aedes aegypti
Eight A. aegypti L1 larvae in a total volume of 64 μL water were added to 384-well microplates containing compounds formulated in 100% DMSO. The plates were incubated for 48 h at 27° C. Individual well images were acquired and analyzed using a pipeline to quantitatively assess the amount of larvae biomass accumulating at the bottom of the well. The efficacy of a compound at a given dose is expressed as “percentage of mortality” and determined by comparison to average biomass descriptors of positive and negative control wells containing 1.0 μM Fipronil or DMSO only, respectively. Dose response assay were conducted to determine an EC50 value.

[4] = test system: Myzus persicae; assay: Insecticidal test on Myzus persicae (foliar application on potted Chinese cabbage); conditions: 144 h, 500 ppm, foliar application, 6 days after application, read-out: control efficacy level (control rate), Myzus persicae
From the text: Example 14: Insecticidal Test on Myzus persicae
The compounds of formula (I) of the present invention or salts thereof were separately dispersed in water and diluted to 500 ppm. Chinese cabbage plants were planted in plastic pots (diameter: 8 cm, height: 8 cm). Aphids (Myzus persicae) were propagated on the plants and then the number of surviving aphids was counted. The dispersion was applied to the foliage of the potted plants. After the plants were air dried, these were kept in a greenhouse. 6 days after the application, the number of the alive insects was counted on the plants. The control rate was calculated according to the following formula and the control efficacy was evaluated according to the following criteria. Control rate (%)=100−{(T×Ca)/(Ta×C)}×100 • Ta: the number of alive insects before the foliar application in a treated plot • T: the number of alive insects after the foliar application in a treated plot • Ca: the number of alive insects before the foliar application in an untreated plot • C: the number of alive insects after the foliar application in an untreated plot • A: the control rate is 100% • B: the control rate is 90 to 99% • C: the control rate is 80 to 89% • D: the control rate is 50 to 79%

[5] = test system: Laodelphax striatellus 3rd-instar nymphs; assay: Insecticidal test on Laodelphax striatellus (rice seedling dip); conditions: 192 h, read-out: activity level (corrected mortality rate), Laodelphax striatellus
Protocol: Example 13: Insecticidal Test on Laodelphax striatellus
as §1, with “Rice plant seedlings” for “Ten adults of Plutella xylostella”, “were” for “were released onto Chinese cabbage seedlings and allowed to lay eggs thereon. 2 days after the release of the adults, the seedling was”, “seedlings were put into a separate glass test tube and inoculated with ten 3rd-instar nymphs of Laodelphax striatellus and then the glass test tube” for “seedling”, “8” for “6”, “inoculation,” for “dip treatment,”

[6] = test system: adult Rhipicephalus sanguineus ticks; assay: Contact activity against adult Rhipicephalus sanguineus (coated vial, mortality at 48 h); conditions: Rhipicephalus sanguineus
Protocol: Example 5: Screening Method to Test Contact Activity of Compounds of Formula (I) Against Adult Rhipicephalus sanguineus
Compounds of formula (I) formulated in 100% DMSO were diluted in a solution containing acetone and Triton X-100 (0.02%). The resulting formulation was used to coat the inner walls of glass scintillation vials and the filter paper covering the cap of the vial. Once dried, ten adult R. sanguineus ticks were added to the vials. The vials were incubated at 24° C., 95% relative humidity, and 12 hours of light/12 hours of dark until evaluation. Ticks were visually evaluated for mortality at 48 hours post-treatment. Compound efficacy at a given dose is expressed as percentage mortality. A dose response series was implemented to determine EC50 values.
(§2) The four structurally closest prior art compounds (A), (B), (C) and (D) specifically excluded from the scope of formula (I) were characterized vis-a-vis selected compounds of formula (I) with regard to their potency in in vitro screening assays against fleas (Ctenocehalides felis) and ticks (Rhipicephalus sanguineus).
(§3) However, as explained above, spectrum of action against this range of species (i.e. fleas and ticks) is a desirable property of ectoparasiticides for veterinary use. In the following table 1 comparative experimental data of the in vitro assays are shown regarding flea membrane feeding (ingestion, blood feeding) activity against Ctenocephalides felis and contact activity against Rhipicephalus sanguineus.

[7] = test system: adult Ctenocephalides felis fleas; assay: Ingestion activity (flea membrane feeding, blood feeding) against adult Ctenocephalides felis; conditions: Ctenocephalides felis
From the text: Example 6: Screening Method to Test Ingestion Activity of Compounds of Formula (I) Against Adult Ctenocephalides felis
as §2
It is important to note that compounds that show better activity versus ticks are more desirable in the animal health field, as ticks are more difficult to control than fleas. Noteworthy, in particular with regard to fleas the illustrated comparative data are based on a flea membrane feeding (ingestion, blood feeding) assay. Data from this assay are more relevant for compounds intended to be delivered systemically to an animal via oral or injectable routes. Membrane feeding assays differ to primary screening laboratory contact assays in that the latter only measure the effect of the direct contact of selected compounds on the parasite, such as the flea or the tick. The information derived from laboratory contact assays is strictly limited to the ability of the compound to be absorbed through the parasite surface and to reach its molecular target, and no information can be gleaned from these contact assays as to whether the compound would also be active when presented orally to the ectoparasite itself in a blood meal, such as with the membrane feeding assay, and certainly not when administered orally to an animal host (e.g. “in vivo”) with subsequent exposure to the ectoparasite.
as §3

[8] = 500 ppm, seedling dip, 6 days after dip treatment
[9] = 500 ppm, seedling dip, 8 days after inoculation
[10] = 48 hours post-treatment, coated vial, read-out: EC50 (percentage mortality, adult R. sanguineus, contact)
[11] = bovine blood, 24h post treatment, read-out: EC80 (% motility reduction, adult C. felis, ingestion via membrane feeding)

Compound	EC80 ([1]; treated surface, 24h) [µM]	mortality at 500 ppm [2, 8] [%]	pest or weed control at 500 ppm [4] [%]	mortality at 500 ppm [5, 9] [%]	also measured
CCn1cc(C(F)(F)F)cc2nc(-c3ncc(-c4ccc(C5CC5)cc4)cc3S(=O)(=O)CC)cc1-2 [Compound 6, 5-(4-cyclopropylphenyl)-3-(ethanesulfonyl)-2-[4-ethyl-6-(trifluoromethyl)pyrrolo[3,2-b]pyridine-2-yl]pyridine]	1 to 10	100			
CCS(=O)(=O)c1cc(-c2ccc(C3CC3)cc2)cnc1-n1cc2cnc([S+]([O-])C(F)(F)F)cc2n1 (centres unmarked) [Compound 29, 5-(4-cyclopropylphenyl)-3-(ethanesulfonyl)-2-[6-trifluoromethanesulfinylpyrazolo[4,3-c]pyridin-2-yl]pyridine]	1 to 10				EC50 [3]: < 0.04 µM
CCS(=O)(=O)c1cc(-c2ccc(C3CC3)cc2)cnc1-c1nc2cc(C(F)(F)F)cnc2o1 [Compound 40, 5-(4-cyclopropylphenyl)-3-(ethanesulfonyl)-2-[6-(trifluoromethyl)-[1,3]oxazolo[5,4-b]pyridin-2-yl]pyridine]	1 to 10	100			
CCS(=O)(=O)c1cc(-c2ccc(C3CC3)cc2)cnc1-c1nc(-c2cc(C(F)(F)F)ccn2)cn1C [Compound 55, 5-(4-cyclopropylphenyl)-3-(ethanesulfonyl)-2-[1-methyl-4-[4-(trifluoromethyl)pyridin-2-yl]imidazol-2-yl]pyridine]		100	100	100	
CCS(=O)(=O)c1cc(-c2cncc(C3CC3)c2)cnc1-c1nc2cc(C(F)(F)C(F)(F)F)nnc2n1C [Compound 61, 5′-cyclopropyl-5-(ethanesulfonyl)-6-[7-methyl-3-(1,1,2,2,2-pentafluoroethyl)imidazo[4,5-c]pyridazin-6-yl]-3,3′-bipyridine]					EC50 [6, 10]: 10 to 100 µM; EC50 [3]: 0.04 to 0.05 µM
CCn1cc(C(F)(F)F)cc2nc(-c3ncc(-c4ncc(C5CC5)cn4)cc3S(=O)(=O)CC)cc1-2 [Compound 92, 5-cyclopropyl-2-[5-(ethanesulfonyl)-6-[4-ethyl-6-(trifluoromethyl)pyrrolo[3,2-b]pyridin-2-yl]pyridin-3-yl]pyrimidine]	1 to 10	100	100		
CCS(=O)(=O)c1cc(-c2cnc(C3CC3)nc2)cnc1-c1nc2cc(C(F)(F)C(F)(F)F)nnc2n1C [Compound 93, 2-cyclopropyl-5-[5-(ethanesulfonyl)-6-[7-methyl-3-(1,1,2,2,2-pentafluoroethyl)imidazo[4,5-c]pyridazin-6-yl]pyridin-3-yl]pyrimidine]	< 1				EC80 [7, 11]: 1 to 10 µM
CCS(=O)(=O)c1cc(-c2ccc(C3CC3)cc2)cnc1-c1cc2n(C(C)C)cc(C(F)(F)F)cc-2n1 [Compound 100, 5-(4-cyclopropylphenyl)-3-(ethanesulfonyl)-2-[4-isopropyl-6-(trifluoromethyl)pyrrolo[3,2-b]pyridin-2yl]pyridine]					EC80 ([1]; 24 h): 1 to 10 µM; EC50 ([6]; 48 h, read-out: EC50 (percentage mortality, adult R. sanguineus, contact)): < 10 µM; mortality at 500 ppm [2]: 100%; mortality at 500 ppm [5]: 100%
CCS(=O)(=O)c1cc(-c2ccc(C3CC3)cc2)cnc1-c1ccc(OCC(F)(F)C(F)(F)F)nn1 [Compound 126, 3-[5-(4-cyclopropylphenyl)-3-(ethanesulfonyl)pyridin-2-yl]-6-(2,2,3,3,3-pentafluoropropoxy)pyridazine]		100	100	100	EC50 [6, 10]: < 10 µM
CCS(=O)(=O)c1cc(-c2cnnc(C3CC3)c2)cnc1-c1nc2cc(C(F)(F)C(F)(F)F)cnc2n1C [Compound 195, 3-cyclopropyl-5-[5-(ethanesulfonyl)-6-[3-methyl-6-(1,1,2,2,2-pentafluoroethyl)imidazo[4,5-b]pyridin-2-yl]pyridin-3-yl]pyridazine]		100		100	EC80 [7, 11]: < 1 µM
CCS(=O)(=O)c1cc(-c2ccc(C3(C(F)(F)F)CC3)cc2)cnc1-c1nc2cc(C(F)(F)C(F)(F)F)ncc2n1C [compound 116]					EC50 [3]: < 0.04 µM
CCn1c(=O)c(C(F)(F)F)cc2nc(-c3ncc(-c4ccc(C5CC5)cc4)cc3S(=O)(=O)CC)n(C)c21 [compound 125]	1 to 10		100		
CCS(=O)(=O)c1cc(-c2ccc(C3CC3(F)F)cc2)cnc1-c1nc2cc(C(F)(F)C(F)(F)F)cnc2n1C (centres unmarked) [compound 134]	1 to 10	100	100	100	EC80 ([7]; 24 h, flea membrane feeding (ingestion, blood feeding) assay, EC80, read-out: C. felis membrane feeding (ingestion/blood feeding) activity EC80): 1 to 10 µM; EC80 [7, 11]: 1 to 10 µM; EC50 [6, 10]: 10 to 100 µM; EC50 ([6]; contact assay, >100 μM = not active at the top concentration, read-out: R. sanguineus contact activity EC50): 10 to 100 µM
CCS(=O)(=O)c1cc(-c2cccnc2C2CC2)cnc1-c1nc2cc(C(F)(F)C(F)(F)F)nnc2n1C [compound 138]	< 1	100	100	100	EC80 [7, 11]: < 1 µM
CCS(=O)(=O)c1cc(-c2ccc(C3(C)CC3)cc2)cnc1-c1nc2cc(C(F)(F)C(F)(F)F)nnc2n1C [compound 154]	1 to 10	100	100		EC50 [6, 10]: 10 to 100 µM
